The source of these data is article PMC12073785, “Design, Synthesis and Biological Evaluation of 3-Hydrazonoindolin-2-one Derivatives as Novel HIV-1 RNase H Inhibitors” (Molecules, 2025).

The structures appear in SMILES notation. A value given as a limit tells only on which side of the number the result lay.

Data set [1] deals with T1, HIV-1 RT-associated RNase H (Human immunodeficiency virus type 1 group M subtype B, UniProt P04585).
T1 construct: HIV-1 group M subtype B heterodimeric reverse transcriptase (RT) was expressed and purified; made in house; host or cells: Escherichia coli strain M15, p6HRT-Prot expression vector
Put plainly: HIV-1 RT-associated RNase H inhibition (fluorescent RNA/DNA hybrid). In kind it is biochemical. Conditions: for IC50: HIV-1 RT wt, average of three independent determinations, read-out: IC50, concentration required to inhibit 50% of in vitro RNase H activity; for Fold increase in RNase H inhibitory potency compared to compound 6a: IC50 ratio versus 6a. On the procedure: The tested compounds were initially dissolved in dimethyl sulfoxide (DMSO) at a concentration of 50 mM and subsequently serially diluted (ratio 1:3). The compounds were tested as previously described.
Briefly, a reaction mixture containing 50 mM Tris-HCl buffer pH 7.8, 6 mM MgCl2, 1 mM dithiothreitol (DTT), 80 mM KCl, 0.25 μM hybrid RNA/DNA. 25 μM of RNA/DNA hybrid 5′-GAUCUGAGCCUGGAGCU-Fluorescin-3′ (HPLC, dry, QC: Mass Check), 5′-Dabcyl-AGCTCCCAGGCTCAGATC-3′ (HPLC, dry, QC: Mass Check), and increasing concentrations of inhibitors was diluted in DMSO. The activity of the RNase H function associated with HIV-1 RT was quantified by measuring the linear portion of the dose–response curve. The reaction mixture was incubated at 37 °C for 10 min with a Victor Nivo 5 multilabel plate reader (model 1420-051, PerkinElmer, Waltham, MA, USA), and fluorescence signals were recorded at excitation/emission wavelengths of 490/528 nm. Based on the obtained fluorescence data, the inhibitory concentration 50 (IC50) of the target compounds was calculated by interpolation on a dose–response curve. Results are reported as average and standard deviation of at least two independent replicates in triplicate.

For another data set, the system named is HIV-1 (strain IIIB). Put plainly: Anti-HIV-1 (strain IIIB) activity in MT-4 cells, MTT assay. To be noted: for EC50: Human immunodeficiency virus 1, IIIB, MT4, protection of MT-4 cells against HIV-induced cytopathogenicity by 50%; for SI, selectivity index: ratio CC50/EC50, MT-4 cells. The format is cell-based. On the procedure:
(§1) The anti-HIV-1 (strain IIIB) activity evaluation in MT-4 cells was conducted using an optimized MTT assay. The cell lines were obtained from the laboratory (Prof. Erik De Clercq, Rega Institute for Medical Research, KU Leuven, Herestraat 49, Leuven, Belgium). Compounds were serially diluted (5-fold increments, starting from 10× concentration) and dispensed into 96-well plates (25 µL/well) via an automated Biomek 3000 workstation (Beckman Instruments, Fullerton, CA, USA). Parallel experimental groups included virus-infected (50 µL HIV inoculum, 100–300 TCID50) and mock-infected controls (50 µL culture medium). MT-4 cells were centrifuged (220× g, 5 min), resuspended to 6 × 10⁵ cells/mL, and seeded (50 µL/well). After a 5-day incubation, cell viability was quantified by measuring mitochondrial dehydrogenase-mediated MTT-to-formazan conversion using dual-wavelength spectrophotometry (540 nm primary, 690 nm reference). The 50% cytotoxic concentration (CC50) was calculated from triplicate median absorbance values, representing the compound concentration reducing mock-infected cell viability by 50%.

Data set [2] can be described thus: Cytotoxicity in mock-infected MT-4 cells, MTT assay. In kind it is cell-based. To be noted: human, mock-infected MT-4 cells; reduction of normal uninfected MT-4 cell viability by 50%. On the procedure: as §1
In general terms: Tetrazolium assays rely on reduction of a dye to a coloured formazan, in cell work by metabolically active cells.

The target in data set [3] is T1, HIV-1 RT-associated RNase H. Put plainly: Kinetic analysis of RNase H inhibition, competition with RNA/DNA substrate. The format is biochemical. The source says: Based on the docking binding predictions, compound 6t and compound 11a were chosen for further characterization. To study the interaction between the chemical compounds and the enzyme in complex with the substrate, we evaluated the competition of compounds 6a and 11a with the RNA substrate (Figure 5). […] Given the results obtained, it is hypothesized that the binding between the inhibitor and the RT protein may modulate the interaction between the enzyme and the RNA substrate, resulting in an increased apparent KM and decreased apparent Vmax when increasing the concentration of the inhibitor.
Kinetic analysis of the DNA-polymerase independent RNase H activity was performed as already reported. Briefly, a reaction mixture containing 50 mM Tris-HCl buffer pH 7.8, 6 mM MgCl2, 1 mM DTT, 80 mM KCl, and increasing concentrations of hybrid RNA/DNA 5′-GAUCUGAGCCUGGGAGCU-Fluorescin-3′/5′-Dabcyl-AGCTCCCAGGCTCAGATC-3′ was incubated at 37 °C for 10 min with a Victor Nivo 5 multilabel plate reader (model 1420-051, PerkinElmer, Waltham, MA, USA), and fluorescence signals were recorded at excitation/emission wavelengths of 490/528 nm. Results were represented according to Michaelis Menten and Lineaweaver–Burke plots.

Another data set has as its system HIV-1 RT R448A. Put plainly: RNase H inhibition with HIV-1 RT R448A mutant versus RT wt. The format is biochemical. To be noted: HIV-1 RT R448A versus RT wt. The source says:
Furthermore, to validate the docking binding prediction of the compounds in the active site of the RT, and the interaction with amino acid residue R448, which was predicted to stabilize the binding of the compounds through a hydrogen bond, we evaluated the activity of compounds 6t and 11a in parallel against the RT wt enzyme and the HIV-1 RT R448A mutant (Figure 6). […] The results confirmed the importance of residue R448 in the binding of inhibitors and validated the predicted binding site to the enzyme; indeed, the less pronounced effect of R448A mutation on 11a inhibitory activity might be explained with the additional hydrogen bound predicted to form between 11a and amino acid Q475 (Figure 6).

As a reminder, the EC50 is the concentration giving half of the maximal effect. Lower therefore signals greater potency. What is called CC50 is the concentration that lowers cell viability or growth by half. Usually Ki stands for a dissociation constant, usually derived from enzyme kinetics or from competition with a known ligand. A lower Ki goes with tighter binding.

Take `O=C1Nc2ccc(F)cc2C1=NNc1cc(=O)[nH]c(=O)[nH]1` [Compound 6a, 6-(2-(5-Fluoro-2-oxoindolin-3-ylidene)hydrazineyl)pyrimidine-2,4(1H,3H)-dione]: the IC50 in data set [1] was found to be 81.2 ± 11.4 µM. Still for that read-out and setting: for `O=C1Nc2ccccc2C1=NNc1cc(=O)[nH]c(=O)[nH]1` [Compound 6b, 6-(2-(2-Oxoindolin-3-ylidene)hydrazineyl)pyrimidine-2,4(1H,3H)-dione] the value was above 100 µM; for `O=C1Nc2ccc(Cl)cc2C1=NNc1cc(=O)[nH]c(=O)[nH]1` [Compound 6c, 6-(2-(5-Chloro-2-oxoindolin-3-ylidene)hydrazineyl)pyrimidine-2,4(1H,3H)-dione], 58.8 ± 2.4 µM; for `O=C1Nc2ccc(Br)cc2C1=NNc1cc(=O)[nH]c(=O)[nH]1` [Compound 6d, 6-(2-(5-Bromo-2-oxoindolin-3-ylidene)hydrazineyl)pyrimidine-2,4(1H,3H)-dione], above 100 µM. Same read-out and setting: for `Cc1ccc2c(c1)C(=NNc1cc(=O)[nH]c(=O)[nH]1)C(=O)N2` [Compound 6e, 6-(2-(5-Methyl-2-oxoindolin-3-ylidene)hydrazineyl)pyrimidine-2,4(1H,3H)-dione] the value was above 100 µM; for `O=C1Nc2ccc(OC(F)(F)F)cc2C1=NNc1cc(=O)[nH]c(=O)[nH]1` [Compound 6f, 6-(2-(2-Oxo-5-(trifluoromethoxy)indolin-3-ylidene)hydrazineyl)pyrimidine-2,4(1H,3H)-dione], 8.94 ± 1.43 µM; for `O=C1Nc2cc(F)ccc2C1=NNc1cc(=O)[nH]c(=O)[nH]1` [Compound 6g, 6-(2-(6-Fluoro-2-oxoindolin-3-ylidene)hydrazineyl)pyrimidine-2,4(1H,3H)-dione], 56.8 ± 15.9 µM. The same measure, in the same setting: for `O=C1Nc2cc(Cl)ccc2C1=NNc1cc(=O)[nH]c(=O)[nH]1` [Compound 6h, 6-(2-(6-Chloro-2-oxoindolin-3-ylidene)hydrazineyl)pyrimidine-2,4(1H,3H)-dione] the value was above 100 µM; for `O=C1Nc2cc(Br)ccc2C1=NNc1cc(=O)[nH]c(=O)[nH]1` [Compound 6i, 6-(2-(6-Bromo-2-oxoindolin-3-ylidene)hydrazineyl)pyrimidine-2,4(1H,3H)-dione], 23.6 ± 1.11 µM. For `O=C1Nc2cc(OC(F)(F)F)ccc2C1=NNc1cc(=O)[nH]c(=O)[nH]1` [Compound 6j, 6-(2-(2-Oxo-6-(trifluoromethoxy)indolin-3-ylidene)hydrazineyl)pyrimidine-2,4(1H,3H)-dione], the IC50 in data set [1] amounted to 15.28 ± 0.01 µM. On to `O=C1Nc2c(F)cccc2C1=NNc1cc(=O)[nH]c(=O)[nH]1` [Compound 6k, 6-(2-(7-Fluoro-2-oxoindolin-3-ylidene)hydrazineyl)pyrimidine-2,4(1H,3H)-dione], for which the IC50 in data set [1] was above 100 µM. Same read-out and setting: for `O=C1Nc2c(Cl)cccc2C1=NNc1cc(=O)[nH]c(=O)[nH]1` [Compound 6l, 6-(2-(7-Chloro-2-oxoindolin-3-ylidene)hydrazineyl)pyrimidine-2,4(1H,3H)-dione] the value was 46.6 ± 3.25 µM. Turning to `O=C1Nc2c(Br)cccc2C1=NNc1cc(=O)[nH]c(=O)[nH]1` [Compound 6m, 6-(2-(7-Bromo-2-oxoindolin-3-ylidene)hydrazineyl)pyrimidine-2,4(1H,3H)-dione], the IC50 in data set [1] is 43.8 ± 7.92 µM.

For `Cc1cccc2c1NC(=O)C2=NNc1cc(=O)[nH]c(=O)[nH]1` [Compound 6n, 6-(2-(7-Methyl-2-oxoindolin-3-ylidene)hydrazineyl)pyrimidine-2,4(1H,3H)-dione], in data set [1], the IC50 amounted to 25.5 ± 1.37 µM. As for `O=C1Nc2c(cccc2C(F)(F)F)C1=NNc1cc(=O)[nH]c(=O)[nH]1` [Compound 6o, 6-(2-(2-Oxo-7-(trifluoromethyl)indolin-3-ylidene)hydrazineyl)pyrimidine-2,4(1H,3H)-dione], in data set [1], the IC50 amounted to 24.1 ± 7.02 µM. On to `COc1ccc2c(c1)C(=NNc1cc(=O)[nH]c(=O)[nH]1)C(=O)N2` [Compound 6p, 6-(2-(5-Methoxy-2-oxoindolin-3-ylidene)hydrazineyl)pyrimidine-2,4(1H,3H)-dione], for which the IC50 in data set [1] is above 100 µM.

Take `COc1ccc2c(c1)NC(=O)C2=NNc1cc(=O)[nH]c(=O)[nH]1` [Compound 6q, 6-(2-(6-Methoxy-2-oxoindolin-3-ylidene)hydrazineyl)pyrimidine-2,4(1H,3H)-dione]: in data set [1], the IC50 was above 100 µM.

As to `COc1cccc2c1NC(=O)C2=NNc1cc(=O)[nH]c(=O)[nH]1` [Compound 6r, 6-(2-(7-Methoxy-2-oxoindolin-3-ylidene)hydrazineyl)pyrimidine-2,4(1H,3H)-dione], in data set [1], the IC50 is above 100 µM.

`O=C1Nc2cc(F)c(F)cc2C1=NNc1cc(=O)[nH]c(=O)[nH]1` [Compound 6s, 6-(2-(5,6-Difluoro-2-oxoindolin-3-ylidene)hydrazineyl)pyrimidine-2,4(1H,3H)-dione]: in data set [1], the IC50 was determined as 64.9 ± 0.77 µM. For `O=C1Nc2cc(Cl)c(Cl)cc2C1=NNc1cc(=O)[nH]c(=O)[nH]1` [Compound 6t, 6-(2-(5,6-Dichloro-2-oxoindolin-3-ylidene)hydrazineyl)pyrimidine-2,4(1H,3H)-dione], in data set [1], the IC50 is 7.85 ± 0.55 µM and the “Fold increase in RNase H inhibitory potency compared to compound 6a” value is given as around 10 fold. In the data set with HIV-1 (strain IIIB), it took 110 µM to reach a half-maximal effect (EC50) and the “SI, selectivity index” value amounted to 3. Moreover, it took 294 µM to reach half-maximal cytotoxicity in data set [2] (CC50 at 5 days). Also, in data set [3] (Michaelis Menten and Lineweaver-Burk plots), the Mode of inhibition result was “mixed model inhibitor”. The molecule further came in with a Ki in data set [3] (competition with RNA substrate) of 2.31 µM. Moreover, the “Vmax (apparent)” value in data set [3] (inhibitor 4 μM) is recorded as 124.2. For the same molecule, the “Vmax (apparent)” value in data set [3] (inhibitor 12 μM) is reported as 104.6. Besides, the “Shift of the inhibition curve (loss of potency)” value in the data set on HIV-1 RT R448A is recorded as “four-fold”. Take `O=C1Nc2cc(Br)c(Br)cc2C1=NNc1cc(=O)[nH]c(=O)[nH]1` [Compound 6u, 6-(2-(5,6-Dibromo-2-oxoindolin-3-ylidene)hydrazineyl)pyrimidine-2,4(1H,3H)-dione]: the IC50 in data set [1] worked out at 11.8 ± 0.81 µM. On the same count and under the same terms, for `Cc1cc(C)c2c(c1)C(=NNc1cc(=O)[nH]c(=O)[nH]1)C(=O)N2` [Compound 6v, 6-(2-(5,7-Dimethyl-2-oxoindolin-3-ylidene)hydrazineyl)pyrimidine-2,4(1H,3H)-dione] the value was 23.6 ± 3.89 µM. For `O=C1Nc2cc(Br)c(Br)cc2C1=NNc1c[nH]c(=O)[nH]c1=O` [Compound 11b, 5-(2-(5,6-Dibromo-2-oxoindolin-3-ylidene)hydrazineyl)pyrimidine-2,4(1H,3H)-dione], in data set [1], the IC50 is 2.2 ± 0.2 µM and the “Fold increase in RNase H inhibitory potency compared to compound 6a” value is 40 fold. Moreover, the “Fold increase in RNase H inhibitory potency compared to compound 6t” value in data set [1] (IC50 ratio versus 6t) was determined as 4 fold. In the data set on HIV-1 (strain IIIB), the EC50 turned out to be 44.9 µM and the “SI, selectivity index” value is 8. The CC50 at 5 days in data set [2] was 349 µM.
